Source: ChEMBL document CHEMBL4613209, “Quinolone hybrids and their anti-cancer activities: An overview” (Eur J Med Chem, 2019)

tested on: HL-60; test: Cytotoxicity against human HL60 cells assessed as reduction in cell viability; type: functional, cell-based; details: not given

`CCN1CCN(c2cc3c(cc2F)c(=O)c(-c2nn4c(-c5cn(C6CC6)c6cc(N7CCN(C)CC7)c(F)cc6c5=O)nnc4s2)nn3C2CC2)CC1` and `CN1CCN(c2cc3c(cc2F)c(=O)c(-c2nnc4sc(-c5cn(C6CC6)c6nc(N7CCN(C)CC7)c(F)cc6c5=O)nn24)cn3C2CC2)CC1` fall in the same range of IC50: 0.12 to 5.2 µM for the first, 0.12 to 5.2 µM for the second.

`C[C@H]1COc2c(N3CCN(C)CC3)c(F)cc3c(=O)c(-c4nnc(-c5cn(C6CC6)c6cc(N7CCN(C)CC7)c(F)cc6c5=O)o4)cn1c23` and `C[C@H]1COc2c(N3CCN(C)CC3)c(F)cc3c(=O)c(-c4nn5c(-c6cn(C7CC7)c7cc(N8CCN(C)CC8)c(F)cc7c6=O)nnc5s4)cn1c23` cannot be ordered by IC50: 0.26 to 14.5 µM for the first, 0.12 to 5.2 µM for the second.

First: CN1CCN(c2cc3c(nc2F)c(=O)c(-c2nnc4sc(-c5cn(C6CC6)c6cc(N7CCNCC7)c(F)cc6c5=O)nn24)cn3C2CC2)CC1
Second: CC1COc2c(N3CCN(C)CC3)c(F)cc3c(=O)c(-c4nn5c(-c6cn(C7CC7)c7cc(N8CCN(C)CC8)c(F)cc7c6=O)nnc5s4)cn1c23 (stereo not given)
The IC50 of the first is lower: 0.12 to 5.2 µM for the first, 14.2 to 23.7 µM for the second.

`CCN1CCN(c2cc3c(cc2F)c(=O)c(-c2nnc(-c4cn(C5CC5)c5cc(N6CCNCC6)c(F)cc5c4=O)o2)cn3C2CC2)CC1` and `O=c1c(-c2nnc(-c3cn(C4CC4)c4cc(N5CCNCC5)c(F)cc4c3=O)o2)cn(C2CC2)c2cc(N3CCNCC3)c(F)cc12` fall in the same range of IC50: 0.26 to 14.5 µM for the first, 0.26 to 14.5 µM for the second.

First: CCN1CCN(c2cc3c(cc2F)c(=O)c(-c2nnc4sc(-c5cn6c7c(c(N8CCN(C)CC8)c(F)cc7c5=O)OC[C@@H]6C)nn24)cn3C2CC2)CC1
Second: CCN1CCN(c2cc3c(cc2F)c(=O)c(-c2nnc4sc(-c5cn6c7c(c(N8CCN(C)CC8)c(F)cc7c5=O)OCC6C)nn24)cn3C2CC2)CC1 (stereo not given)
The IC50 of the first is lower: 0.12 to 5.2 µM for the first, 14.2 to 23.7 µM for the second. The first is the more potent here.

tested on: CHO; test: Cytotoxicity against CHO cells assessed as reduction in cell viability; type: functional, cell-based; details: Cricetulus griseus

`CCN1CCN(c2cc3c(cc2F)c(=O)c(-c2nn4c(-c5cn(C6CC6)c6cc(N7CCN(C)CC7)c(F)cc6c5=O)nnc4s2)nn3C2CC2)CC1` and `CN1CCN(c2cc3c(cc2F)c(=O)c(-c2nnc4sc(-c5cn(C6CC6)c6nc(N7CCN(C)CC7)c(F)cc6c5=O)nn24)cn3C2CC2)CC1` fall in the same range of IC50: 0.12 to 5.2 µM for the first, 0.12 to 5.2 µM for the second.

`C[C@H]1COc2c(N3CCN(C)CC3)c(F)cc3c(=O)c(-c4nnc(-c5cn(C6CC6)c6cc(N7CCN(C)CC7)c(F)cc6c5=O)o4)cn1c23` and `C[C@H]1COc2c(N3CCN(C)CC3)c(F)cc3c(=O)c(-c4nn5c(-c6cn(C7CC7)c7cc(N8CCN(C)CC8)c(F)cc7c6=O)nnc5s4)cn1c23` cannot be ordered by IC50: 0.26 to 14.5 µM for the first, 0.12 to 5.2 µM for the second.

First: CN1CCN(c2cc3c(nc2F)c(=O)c(-c2nnc4sc(-c5cn(C6CC6)c6cc(N7CCNCC7)c(F)cc6c5=O)nn24)cn3C2CC2)CC1
Second: CC1COc2c(N3CCN(C)CC3)c(F)cc3c(=O)c(-c4nn5c(-c6cn(C7CC7)c7cc(N8CCN(C)CC8)c(F)cc7c6=O)nnc5s4)cn1c23 (stereo not given)
The IC50 of the first is lower: 0.12 to 5.2 µM for the first, 14.2 to 23.7 µM for the second. The first is the more potent here.

`CCN1CCN(c2cc3c(cc2F)c(=O)c(-c2nnc(-c4cn(C5CC5)c5cc(N6CCNCC6)c(F)cc5c4=O)o2)cn3C2CC2)CC1` and `O=c1c(-c2nnc(-c3cn(C4CC4)c4cc(N5CCNCC5)c(F)cc4c3=O)o2)cn(C2CC2)c2cc(N3CCNCC3)c(F)cc12` fall in the same range of IC50: 0.26 to 14.5 µM for the first, 0.26 to 14.5 µM for the second.

First: CCN1CCN(c2cc3c(cc2F)c(=O)c(-c2nnc4sc(-c5cn6c7c(c(N8CCN(C)CC8)c(F)cc7c5=O)OC[C@@H]6C)nn24)cn3C2CC2)CC1
Second: CCN1CCN(c2cc3c(cc2F)c(=O)c(-c2nnc4sc(-c5cn6c7c(c(N8CCN(C)CC8)c(F)cc7c5=O)OCC6C)nn24)cn3C2CC2)CC1 (stereo not given)
The IC50 of the first is lower: 0.12 to 5.2 µM for the first, 14.2 to 23.7 µM for the second.

tested on: L1210; test: Cytotoxicity against mouse L1210 cells assessed as reduction in cell viability; type: functional, cell-based; details: not given

`CCN1CCN(c2cc3c(cc2F)c(=O)c(-c2nn4c(-c5cn(C6CC6)c6cc(N7CCN(C)CC7)c(F)cc6c5=O)nnc4s2)nn3C2CC2)CC1` and `CN1CCN(c2cc3c(cc2F)c(=O)c(-c2nnc4sc(-c5cn(C6CC6)c6nc(N7CCN(C)CC7)c(F)cc6c5=O)nn24)cn3C2CC2)CC1` fall in the same range of IC50: 0.12 to 5.2 µM for the first, 0.12 to 5.2 µM for the second.

`C[C@H]1COc2c(N3CCN(C)CC3)c(F)cc3c(=O)c(-c4nnc(-c5cn(C6CC6)c6cc(N7CCN(C)CC7)c(F)cc6c5=O)o4)cn1c23` and `C[C@H]1COc2c(N3CCN(C)CC3)c(F)cc3c(=O)c(-c4nn5c(-c6cn(C7CC7)c7cc(N8CCN(C)CC8)c(F)cc7c6=O)nnc5s4)cn1c23` cannot be ordered by IC50: 0.26 to 14.5 µM for the first, 0.12 to 5.2 µM for the second.

First: CN1CCN(c2cc3c(nc2F)c(=O)c(-c2nnc4sc(-c5cn(C6CC6)c6cc(N7CCNCC7)c(F)cc6c5=O)nn24)cn3C2CC2)CC1
Second: CC1COc2c(N3CCN(C)CC3)c(F)cc3c(=O)c(-c4nn5c(-c6cn(C7CC7)c7cc(N8CCN(C)CC8)c(F)cc7c6=O)nnc5s4)cn1c23 (stereo not given)
The IC50 of the first is lower: 0.12 to 5.2 µM for the first, 14.2 to 23.7 µM for the second. The first is the more potent here.

`CCN1CCN(c2cc3c(cc2F)c(=O)c(-c2nnc(-c4cn(C5CC5)c5cc(N6CCNCC6)c(F)cc5c4=O)o2)cn3C2CC2)CC1` and `O=c1c(-c2nnc(-c3cn(C4CC4)c4cc(N5CCNCC5)c(F)cc4c3=O)o2)cn(C2CC2)c2cc(N3CCNCC3)c(F)cc12` fall in the same range of IC50: 0.26 to 14.5 µM for the first, 0.26 to 14.5 µM for the second.

First: CCN1CCN(c2cc3c(cc2F)c(=O)c(-c2nnc4sc(-c5cn6c7c(c(N8CCN(C)CC8)c(F)cc7c5=O)OC[C@@H]6C)nn24)cn3C2CC2)CC1
Second: CCN1CCN(c2cc3c(cc2F)c(=O)c(-c2nnc4sc(-c5cn6c7c(c(N8CCN(C)CC8)c(F)cc7c5=O)OCC6C)nn24)cn3C2CC2)CC1 (stereo not given)
The IC50 of the first is lower: 0.12 to 5.2 µM for the first, 14.2 to 23.7 µM for the second.
